Our source for the ΔTm values is ChEMBL document CHEMBL5724796, “Tm Shift (DSF) assay results for EUbOPEN Chemogenomics Library” (2024).

Assay [1] deals with T1, Peregrin (Homo sapiens) (UniProt P55201).
T1 sequence (whole entry): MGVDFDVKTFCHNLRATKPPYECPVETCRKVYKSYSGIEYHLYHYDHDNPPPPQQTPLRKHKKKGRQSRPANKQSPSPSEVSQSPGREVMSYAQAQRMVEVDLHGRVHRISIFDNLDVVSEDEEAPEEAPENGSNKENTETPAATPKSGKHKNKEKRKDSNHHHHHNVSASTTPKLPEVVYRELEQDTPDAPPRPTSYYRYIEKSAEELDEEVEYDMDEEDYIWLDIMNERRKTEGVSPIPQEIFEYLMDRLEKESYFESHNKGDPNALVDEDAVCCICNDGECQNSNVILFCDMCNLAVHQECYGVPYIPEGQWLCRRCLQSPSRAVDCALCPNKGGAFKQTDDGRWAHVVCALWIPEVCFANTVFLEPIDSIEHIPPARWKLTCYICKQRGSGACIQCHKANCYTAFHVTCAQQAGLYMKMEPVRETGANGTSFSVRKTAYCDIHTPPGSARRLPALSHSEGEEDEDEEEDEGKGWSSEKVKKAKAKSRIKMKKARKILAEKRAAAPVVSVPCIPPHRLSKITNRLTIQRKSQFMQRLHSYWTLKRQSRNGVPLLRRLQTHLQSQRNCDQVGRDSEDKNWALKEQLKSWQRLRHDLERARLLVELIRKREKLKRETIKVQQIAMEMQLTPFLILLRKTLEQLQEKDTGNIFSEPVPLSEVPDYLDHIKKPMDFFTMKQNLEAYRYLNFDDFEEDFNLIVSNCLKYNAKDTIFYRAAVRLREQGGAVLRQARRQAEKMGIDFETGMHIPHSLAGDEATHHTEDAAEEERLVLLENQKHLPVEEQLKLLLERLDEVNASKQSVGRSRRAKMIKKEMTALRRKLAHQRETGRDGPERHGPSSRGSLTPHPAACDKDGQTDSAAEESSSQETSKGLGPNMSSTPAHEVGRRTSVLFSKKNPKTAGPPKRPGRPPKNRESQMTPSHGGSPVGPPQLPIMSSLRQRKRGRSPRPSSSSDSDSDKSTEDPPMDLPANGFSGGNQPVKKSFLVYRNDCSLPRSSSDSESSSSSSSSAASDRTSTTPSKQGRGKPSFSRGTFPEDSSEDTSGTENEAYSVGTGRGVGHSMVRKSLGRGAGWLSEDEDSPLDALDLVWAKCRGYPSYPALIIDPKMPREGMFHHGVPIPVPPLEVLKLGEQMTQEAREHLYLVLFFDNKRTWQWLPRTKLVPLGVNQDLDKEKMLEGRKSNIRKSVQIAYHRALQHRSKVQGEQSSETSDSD
The note with it: Compound concentration 20.0 uM.

Assay [2] has as its target Fibroblast growth factor receptor 2 (Homo sapiens) (UniProt P21802). The note with it: Compound concentration 20.0 uM.
Description: Thermal Shift Assay. Domain: start/stop: T457-E768

Values joined by “and” are separate entries in the source; they are usually repeats but may differ in a detail not shown here. Equal values may be shown once. Non-standard residues stand in square brackets, D forms with d. Residues, ends and D or L forms follow the SMILES beside them. *: point of attachment. Benzoyl(4-OPh) = O=C(c1ccc(Oc2ccccc2)cc1)*; Lys(Et2) = CCN(CC)CCCC[C@H](N)C(=O)O; d(aIle) = CC[C@H](C)[C@@H](N)C(=O)O; Gly(cPent) = N[C@H](C(=O)O)C1CCCC1; NH(propargyl) = C#CCN*

Sequence of Fibroblast growth factor receptor 2 (Homo sapiens) (P21802 22-821 limits assumed): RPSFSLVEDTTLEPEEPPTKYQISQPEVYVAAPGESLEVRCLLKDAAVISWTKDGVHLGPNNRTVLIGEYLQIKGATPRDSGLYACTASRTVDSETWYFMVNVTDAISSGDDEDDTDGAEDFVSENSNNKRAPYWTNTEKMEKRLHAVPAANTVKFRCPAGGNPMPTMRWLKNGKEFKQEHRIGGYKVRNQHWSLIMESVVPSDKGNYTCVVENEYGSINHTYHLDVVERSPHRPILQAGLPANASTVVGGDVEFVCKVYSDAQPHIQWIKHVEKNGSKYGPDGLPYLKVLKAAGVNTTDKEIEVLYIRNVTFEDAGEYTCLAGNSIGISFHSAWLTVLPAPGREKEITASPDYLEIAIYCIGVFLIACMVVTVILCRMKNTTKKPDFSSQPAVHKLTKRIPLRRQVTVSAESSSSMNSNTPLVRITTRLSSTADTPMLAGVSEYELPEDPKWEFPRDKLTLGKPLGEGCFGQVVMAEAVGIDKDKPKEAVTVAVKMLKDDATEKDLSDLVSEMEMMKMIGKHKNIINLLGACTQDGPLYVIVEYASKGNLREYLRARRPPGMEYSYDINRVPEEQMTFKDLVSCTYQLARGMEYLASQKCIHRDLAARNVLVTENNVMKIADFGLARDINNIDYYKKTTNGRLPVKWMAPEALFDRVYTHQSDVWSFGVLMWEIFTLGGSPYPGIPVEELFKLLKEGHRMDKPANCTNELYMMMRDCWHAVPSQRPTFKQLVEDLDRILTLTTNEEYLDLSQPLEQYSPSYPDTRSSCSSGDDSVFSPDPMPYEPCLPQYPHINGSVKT

In general, ΔTm refers to the shift of the melting midpoint relative to a reference. With `Cc1cc(/N=N/c2ccc3c(c2)CCC(=O)N3)c(N)cc1O`, the ΔTm in assay [1] is 1.01 °C; in assay [2] it was 0.16 °C.
With `NC(=O)C(CCCN=C(N)CCl)NC(=O)c1ccccc1` (stereo unspecified), the figures for the ΔTm in assay [1] and in assay [2] were 1.58 °C and -0.58 °C, respectively.
`C[C@H](NC(=O)c1cn(C2(C#N)CC2)cn1)C(=O)Nc1nc(-c2cccc(-c3ccn(C)n3)c2)cs1`: the values for the ΔTm in assay [1] and in assay [2] were -0.85 °C and 0.8 °C, respectively.
Consider `CC1C(C#N)=C(N)OC2=C1C(=O)CC(c1cccc3ccccc13)C2` (stereo unspecified), for which the ΔTm in assay [1] was 1.86 °C; in assay [2], -1.52 °C.
Turning to `O=C(O)CCNc1cc(N2CCc3ccccc3CC2)nc(-c2cccnc2)n1`, the values for the thermal shift (ΔTm) in assay [1] and in assay [2] were -1.01 °C and 0.9 °C, respectively.
For `Cc1nnn(C)c1-c1cnc2c3cc4cnn(C)c4cc3n([C@H](c3ccccc3)C3CCOCC3)c2c1`, in that order: -0.09 °C and -0.32 °C.
For `CC(C)(CNC(=O)c1cccc(-c2noc(C(F)(F)F)n2)c1)c1coc(-c2ccccc2)n1`, in that order: -1.34 °C and 0.16 °C.
For `COc1cc([C@@H]2Oc3c(O)cc([C@H]4Oc5cc(O)cc(O)c5C(=O)[C@@H]4O)cc3[C@H]2CO)ccc1O` the same measures were 2.27 °C and -0.46 °C.
As to `CC(C)(C)c1ccc(CN(C(=O)CN(Cc2c(F)c(F)c(F)c(F)c2F)S(=O)(=O)c2ccc(F)cc2)c2ccc(C(=O)NO)cc2)cc1`, the ΔTm in assay [1] is -3.76 °C; in assay [2], 1.58 °C.
For `CC(=O)N1CCC(c2ccc(C(=O)NC(=N)N)cc2C(F)(F)F)CC1`, in that order: 1.3 °C and 0.33 °C.
As for `Cc1c(F)c(N)cc(C(=O)Nc2cc(-n3cc(C(=O)NCCCN4CCOCC4)nn3)ccc2N2CCN(C)CC2)c1Cl`, the ΔTm was -0.29 °C in assay [1] and 0.03 °C in assay [2].
Consider `N=C(N)SCc1ccc(CN2C(=O)C(=O)c3cc(Br)cc(Br)c32)cc1`, for which the ΔTm in assay [1] was -6.38 °C; in assay [2], -6.45 °C.
For `CC(=O)Nc1ccc(OC[C@](C)(O)C(=O)Nc2ccc([N+](=O)[O-])c(C(F)(F)F)c2)cc1` the same measures were 0.97 °C and 2.59 °C.
For the compound `C=CC(=O)Nc1cccc(-c2c[nH]cc2CN(C)CCN)c1`, the results for the ΔTm in assay [1] and in assay [2] were -1.04 °C and 0.24 °C, respectively.
On to `C#CCNC(=O)[C@H](CO)NC(=O)[C@H](CCCCN(CC)CC)NC(=O)[C@H](NC(=O)[C@@H](NC(=O)c1ccc(Oc2ccccc2)cc1)C1CCCC1)[C@@H](C)CC` ({Benzoyl(4-OPh)}-[Gly(cPent)][d(aIle)][Lys(Et2)]S-{NH(propargyl)}), for which the ΔTm in assay [1] was -0.64 °C; in assay [2], -1.33 °C.
Turning to `OC[C@H]1O[C@@H](c2ccc(Cl)c(Cc3ccc(O[C@H]4CCOC4)cc3)c2)[C@H](O)[C@@H](O)[C@@H]1O`, the ΔTm in assay [1] is 1.01 °C; in assay [2], -0.41 °C.
Consider `Cc1cc(C)c(CNC(=O)c2cc(-c3ccc(N4CCN(C)CC4)nc3)cc3c2c(C)cn3C(C)C)c(=O)[nH]1`, for which the results for the ΔTm in assay [1] and in assay [2] were -1.27 °C and 0.85 °C, respectively.
Consider `CNc1ncc2cc(-c3cc(NC(=O)NCCC(C)(C)C)c(F)cc3C)c(C)nc2n1`, for which the ΔTm in assay [1] is -0.16 °C; in assay [2], 5.58 °C.
Regarding `CC(=O)O[C@]1(C(C)=O)CC[C@H]2[C@@H]3C=C(Cl)C4=CC(=O)[C@@H]5C[C@@H]5[C@]4(C)[C@H]3CC[C@@]21C`, the thermal shift (ΔTm) is -1.28 °C in assay [1] and 0.57 °C in assay [2].
As for `O=C(NCC(=O)N1CCCCC1)Nc1ccc2nnsc2c1`, the ΔTm was -1.05 °C in assay [1] and 0.59 °C in assay [2].
For `Cc1noc2c1-c1ccccc1C(c1ccc(Cl)cc1)=N[C@H]2CC(N)=O`, in that order: 2.09 °C and -0.03 °C.
On to `O=C(O)Cn1nnc(-c2ccc(CN(CCCCOc3ccc(CN4CCCC4)cc3)CCc3ccccc3)cc2)n1`, for which the ΔTm in assay [1] is -2.23 °C; in assay [2], -2.96 °C.
For `CN1CC[C@@H](Oc2ccc(F)c(-c3nc4c(o3)C(=O)c3ccccc3C4=O)c2Cl)C1`, in that order: 0.26 °C and -0.38 °C.
Consider `FC(F)(F)Oc1ccc(Oc2ccnc(N3CCC(NC(=S)Nc4cccnc4)CC3)c2Cl)c(Cl)c1`, for which the ΔTm was 0.92 °C and 3.5 °C in assay [1]; -3.46 °C and 0.73 °C in assay [2].
On to `CC[C@H](C)[C@H](NC(=O)[C@H](CCC(=O)O)NC(=O)[C@@H](NC(C)=O)C(C)C)C(=O)N[C@H](C=O)CC(=O)O` (Ac-VEID-aldehyde), for which the values for the ΔTm in assay [1] and in assay [2] were -1.43 °C and -0.3 °C, respectively.
Take `CN(C)NC(=O)CCC(=O)O`: the results for the ΔTm in assay [1] and in assay [2] were 0.25 °C and 0.18 °C, respectively.
For `C=CCO/N=C1\c2ccccc2-c2nc(C#N)c(C#N)nc21` the same measures were 2.37 °C and 0.66 °C.
`Cc1ccc(C(=O)Nc2ccc(S(=O)(=O)O)c3cc(S(=O)(=O)O)cc(S(=O)(=O)O)c23)cc1NC(=O)c1cccc(NC(=O)Nc2cccc(C(=O)Nc3cc(C(=O)Nc4ccc(S(=O)(=O)O)c5cc(S(=O)(=O)O)cc(S(=O)(=O)O)c45)ccc3C)c2)c1`: the ΔTm in assay [1] is -1.58 °C; in assay [2] it was -1.68 °C.
For `CN(C)CCCNC(=O)c1ccc(-c2cc(O)c3ncccc3c2)cc1`, the values for the ΔTm in assay [1] and in assay [2] were -1.48 °C and 0.49 °C, respectively.
For `Cc1cc2cc(NS(=O)(=O)c3ccc(C#N)cc3)ccc2n(C)c1=O` the same measures were 8.89 °C and 0.4 °C.
For `COCc1nc(C(F)(F)F)[nH]c1-c1cc(C(=O)N2CC(c3ccc(C#N)cc3)C2)c(C)cc1C` the same measures were 1.19 °C and 0.03 °C.
With `CCN(CC)S(=O)(=O)c1cc(Nc2nccc(-c3ccnc(-c4ccc(NC(=O)NC)cc4)c3)n2)ccc1Cl`, the ΔTm is -7.45 °C in assay [1] and -4.8 °C in assay [2].
Regarding `CC(C)Cc1nn(C)c(=O)c2c(SCCCO)n(Cc3cccc4ccccc34)cc12`, the ΔTm was -2.75 °C and -3.63 °C in assay [1]; 0.03 °C and -0.58 °C in assay [2].
`CNCCN(C)Cc1cn[nH]c1-c1ccc(OC2CC(OCCC3CCOCC3)C2)cc1` (stereo unspecified): the ΔTm in assay [1] is -0.84 °C; in assay [2], 0.29 °C.
For the compound `NS(=O)(=O)OC[C@H]1C[C@@H](Nc2ncncc2C(=O)c2ccn(Cc3cccc(Br)c3)n2)C[C@@H]1O`, the results for the shift in melting temperature (ΔTm) in assay [1] and in assay [2] were 1.11 °C and -0.38 °C, respectively.
For the compound `CC(C)Oc1ccc2c(=O)[nH]c3sccc3c2c1`, the ΔTm in assay [1] was -0.93 °C; in assay [2], 0.02 °C.
Take `Cc1n[nH]c(C)c1Cc1sc2c(c1C(=O)N1C[C@H](O)CO1)c(=O)n(C)c(=O)n2CC(C)C`: the ΔTm was 2.27 °C in assay [1] and 0.22 °C in assay [2].
For `CS(=O)(=O)Nc1ccc2oc3c(OC(F)F)ccc(C(=O)Nc4c(Cl)cncc4Cl)c3c2c1`, the ΔTm in assay [1] is 0.46 °C; in assay [2] it was -0.38 °C.
Regarding `Nc1ccccc1NC(=O)c1ccc(CNC(=O)OCc2cccnc2)cc1`, the ΔTm in assay [1] was -0.57 °C; in assay [2] it was 0.41 °C.
Turning to `CS(=O)(=O)n1cc2c(n1)CN([C@H]1CO[C@H](c3cc(F)ccc3F)[C@@H](N)C1)C2`, the ΔTm in assay [1] is 1.17 °C; in assay [2], -0.38 °C.
For `O=C(NCc1ccc(Cl)cc1)C1CCN(S(=O)(=O)c2cc(Cl)cc(Cl)c2)CC1` the same measures were 1.09 °C and -0.34 °C.
For the compound `O=C(CCCCCCNC(=O)c1cnc(N(c2ccccc2)c2ccccc2Cl)nc1)NO`, the thermal shift (ΔTm) was -1.49 °C in assay [1] and 0.65 °C in assay [2].
Turning to `C[C@@H]1CN(c2nccc(Nc3ccc4c(c3)n(CCC(C)(C)O)c(=O)n4C)n2)C[C@H](C)C1(F)F`, the ΔTm in assay [1] was -0.49 °C; in assay [2] it was -0.7 °C.
